IC50 data for 38 molecules are collected here from US20080269293A1, “PYRAZOLE DERIVATIVES AS ANTI-PLATELET AND ANTI-THROMBOTIC AGENTS” (Pfizer Inc., priority 2006, published 2008).

The target of this assay is T1, platelet P2Y1 receptor (Homo sapiens, UniProt P47900).
T1 construct: expressed in transfected cells
The experiment in a line: P2Y1 receptor binding assay ([β-33P]-2-thiomethyl ADP). As to conditions: binding of 0.3 nM [β-33P]-2-thiomethyl ADP, hP2Y1 expressing 132N1 cell membrane, 25° C., 60 minutes. Here is the method: Conducting P2Y, Receptor Binding Assay
[β−^33P]-2-thiomethyl ADP (2100 Ci/mmol) was purchased from PerkinElmer, Protease Inhibitors Complete, EDTA-free, was purchased from Roche, and ADP (Adenosine diphosphate), MRS2179, and 2-thiomethy ADP (2-Me-S-ADP) were purchased from Sigma Chemical Co.
Binding of 0.3 nM [β-^33P]-2-thiomethyl ADP to platelet P2Y1 receptor in 132N1 cell membrane was carried out in triplicate at 25° C. with 96 well plate (Corning, 3365). Nonspecific binding was defined as binding in the presence of 1 μM of 2-Me-S-ADP. One […] of dimethyl sulfoxide (DMSO) or 1 μL of DMSO (Sigma-Aldrich, 472301) containing a test compound diluted to final assay concentrations of 0.1 nM to 1 mM were placed into each well of a Corning 96-well plate. A volume of 60 μL of buffer: 50 mM Tris pH 7.5 (Sigma, T-2194), 1 mM EDTA (Gibco, 15575-038) and 100 mM NaCl (Gibco, 200740-011) containing 0.3 nM [β-^33P]-2-thiomethyl ADP 40 μL of hP2Y1 expressing 132N1 cell membrane prep was added to each well. After incubation on shaker for 60 minutes, The contents of the wells are filtered and washed 8 times with Tomtec Cell Harvester through UniFilter 96, GF/B plates (PerkinElmer, 6005177) Forty five microliters […] Scintillation cocktail (Ultima-Flo-M) was added into each well and plates counted on a Trilux Microbeta Counter.
• 1. Add 1 μL DMSO or compounds into the wells according to the protocol. • 2. Add 60 μL incubation buffer with [β-^33P]-2-thiomethyl ADP into each well. • 3. Add 40 μL hP2Y1 expressing 132N1 cell membrance prep. Incubate 60 minutes on top of the shaker (IKA Shutter MTS4). • 4. Filter and wash 8× with Tomtec Cell Harvester through UniFilter GF/B plates (PerkinElmer, 6005177). • 5. Add 45 μL scintillation cocktail into each well and plates counted on a Trilux Microbeta Counter.

T1 sequence (P47900 whole entry): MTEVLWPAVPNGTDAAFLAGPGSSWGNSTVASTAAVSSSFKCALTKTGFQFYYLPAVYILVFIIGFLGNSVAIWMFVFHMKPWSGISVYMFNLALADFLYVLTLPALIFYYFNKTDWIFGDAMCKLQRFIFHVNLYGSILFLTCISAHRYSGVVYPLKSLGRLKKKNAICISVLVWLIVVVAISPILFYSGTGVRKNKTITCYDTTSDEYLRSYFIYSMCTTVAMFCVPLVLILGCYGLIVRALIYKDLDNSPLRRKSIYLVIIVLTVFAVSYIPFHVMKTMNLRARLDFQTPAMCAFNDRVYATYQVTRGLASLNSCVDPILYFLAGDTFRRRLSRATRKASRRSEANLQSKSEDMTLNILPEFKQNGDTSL

Take `Cc1cc(Oc2ccccc2NC(=O)Nc2ccc(Br)cc2)n(-c2ccccc2Cl)n1` [Example 126, 1-(4-bromophenyl)-3-(2-(1-(2-chlorophenyl)-3-methyl-1H-pyrazol-5-yloxy)phenyl)urea]: the IC50 is 170 nM. As to `Cc1cc(Oc2ccccc2NC(=O)Nc2ccc(C3CCOCC3)cc2)n(-c2ccccc2Cl)n1` [Example 128, 1-(2-(1-(2-chlorophenyl)-3-methyl-1H-pyrazol-5-yloxy)phenyl)-3-(4-(tetrahydro-2H-pyran-4-yl)phenyl)urea], the IC50 is 763 nM.

In the case of `COc1cc(NC(=O)Nc2ccccc2Oc2cc(C)nn2-c2ccccc2)cc(OC)c1OC` [Example 57], the IC50 is > 10000 nM. As for `CCc1ccccc1-n1nc(C)cc1Oc1ccccc1NC(=O)Nc1ccc(N2CCCCC2)cc1` [Example 110, 1-(2-(1-(2-ethylphenyl)-3-methyl-1H-pyrazol-5-yloxy)phenyl)-3-(4-(piperidin-1-yl)phenyl)urea], the IC50 was determined as 290 nM. The value for `COc1cccc(Oc2cc(C)nn2-c2ccccc2)c1NC(=O)Nc1ccc(OC(F)(F)F)cc1` [Example 33] was > 10000 nM. As for `COc1ccc(NC(=O)Nc2ccccc2Oc2cc(C)nn2-c2ccccc2)cc1Cl` [Example 42], the IC50 came to 6980 nM. The same measure for `CSc1ccc(NC(=O)Nc2ccccc2Oc2cc(C)nn2-c2ccccc2)cc1` [Example 39]: 2220 nM. The same measure for `CCc1ccccc1-n1nc(C)cc1Oc1ccccc1NC(=O)Nc1ccc(Oc2ccccc2)cc1` [Example 92, 1-(2-(1-(2-ethylphenyl)-3-methyl-1H-pyrazol-5-yloxy)phenyl)-3-(4-phenoxyphenyl)urea]: 182 nM. As for `Cc1cc(Oc2ccccc2NC(=O)Nc2cccc(C(F)(F)F)c2)n(-c2ccccc2)n1` [Example 36], the concentration for half-maximal inhibition (IC50) is 1300 nM. The value for `Cc1cc(Oc2ccccc2NC(=O)Nc2ccc(C(C)N(C)C)cc2)n(-c2ccccc2Cl)n1` (centres unmarked) [Example 117, 1-(2-(1-(2-chlorophenyl)-3-methyl-1H-pyrazol-5-yloxy)phenyl)-3-(4-(1-(dimethylamino)ethyl)phenyl)urea] was > 10000 nM; that for `Cc1cc(Oc2ccccc2NC(=O)Nc2ccc(OC(F)(F)F)cc2)n(-c2ccccc2Cl)n1` [Example 2, 1-{2-[2-(2-Chloro-phenyl)-5-methyl-2H-pyrazol-3-yloxy]-phenyl}-3-(4-trifluoromethoxy-phenyl)-urea] was 89 nM. The same measure for `Cc1cc(Oc2ccccc2NC(=O)Nc2ccc(-n3cccn3)cc2)n(-c2ccccc2Cl)n1` [Example 99, 1-(4-(1H-pyrazol-1-yl)phenyl)-3-(2-(1-(2-chlorophenyl)-3-methyl-1H-pyrazol-5-yloxy)phenyl)urea]: > 10000 nM. For `Cc1cc(Oc2ccccc2NC(=O)Nc2ccc(C3CCCCC3)cc2)n(-c2ccc(F)cc2Cl)n1` [Example 115, 1-(2-(1-(2-chloro-4-fluorophenyl)-3-methyl-1H-pyrazol-5-yloxy)phenyl)-3-(4-cyclohexylphenyl)urea], the IC50 came to 18 nM. Take `CCc1ccccc1-n1nc(C)cc1Oc1ccccc1NC(=O)Nc1ccc(CN2CCCCC2)cc1` [Example 105, 1-(2-(1-(2-ethylphenyl)-3-methyl-1H-pyrazol-5-yloxy)phenyl)-3-(4-(piperidin-1-ylmethyl)phenyl)urea]: the IC50 was > 10000 nM. The same measure for `Cc1cc(Oc2ccccc2NC(=O)Nc2ccc(OC(F)(F)F)cc2)n(-c2ccc(F)cc2Cl)n1` [Example 114, 1-(2-(1-(2-chloro-4-fluorophenyl)-3-methyl-1H-pyrazol-5-yloxy)phenyl)-3-(4-(trifluoromethoxy)phenyl)urea]: 12 nM; for `Cc1cc(Oc2ccccc2NC(=O)Nc2ccc(OC(F)(F)F)cc2)n(-c2c(Cl)cccc2Cl)n1` [Example 19]: 142 nM. With `CCc1ccccc1-n1nc(C)cc1Oc1ccccc1NC(=O)Nc1ccc(C2CCCCC2)cc1` [Example 108, 1-(4-cyclohexylphenyl)-3-(2-(1-(2-ethylphenyl)-3-methyl-1H-pyrazol-5-yloxy)phenyl)urea], the IC50 came out at 12 nM. Regarding `Cc1cc(Oc2ccccc2NC(=O)Nc2ccc(OC(F)(F)F)cc2)n(-c2cccc(Cl)c2Cl)n1` [Example 4], the IC50 came to 89 nM.

`Cc1cc(Oc2ccccc2NC(=O)Nc2ccc(CO)cc2)n(-c2ccccc2Cl)n1` [Example 87, 1-{2-[2-(2-Chloro-phenyl)-5-methyl-2H-pyrazol-3-yloxy]-phenyl}-3-(4-hydroxymethyl-phenyl)-urea]: the IC50 is > 10000 nM.

Regarding `Cc1cc(Oc2ccccc2NC(=O)Nc2ccc(OC(F)(F)F)cc2)n(-c2ccc(F)cc2)n1` [Example 15], the IC50 is 283 nM. The value for `CC(=O)N1CCC(c2ccc(NC(=O)Nc3ccccc3Oc3cc(C)nn3-c3ccccc3Cl)cc2)CC1` [Example 121, 1-(4-(1-acetylpiperidin-4-yl)phenyl)-3-(2-(1-(2-chlorophenyl)-3-methyl-1H-pyrazol-5-yloxy)phenyl)urea] was > 10000 nM. The same measure for `Cc1cc(Oc2ccccc2NC(=O)Nc2ccc(OC(F)(F)F)cc2)n(-c2ccc(C(C)(C)C)cc2)n1` [Example 97, 1-(2-(1-(4-tert-butylphenyl)-3-methyl-1H-pyrazol-5-yloxy)phenyl)-3-(4-(trifluoromethoxy)phenyl)urea]: 339 nM; for `CCc1ccccc1-n1nc(C)cc1Oc1ccccc1NC(=O)Nc1ccc(-c2ccccc2)cc1` [Example 91, 1-(4-(phenyl)phenyl)-3-(2-(1-(2-ethylphenyl)-3-methyl-1H-pyrazol-5-yloxy)phenyl)urea]: 87 nM. `Cc1cc(Oc2ccccc2NC(=O)Nc2ccc(OC(F)(F)F)cc2)n(-c2ccccc2F)n1` [Example 9] returned an IC50 of 253 nM. `Cc1cc(Oc2ccccc2NC(=O)Nc2ccc(C3CCCCC3)cc2)n(-c2ccccc2Cl)n1` [Example 89, 1-{2-[2-(2-Chloro-phenyl)-5-methyl-2H-pyrazol-3-yloxy]-phenyl}-3-(4-cyclohexyl-phenyl)-urea]: the IC50 came out at 54 nM. The same measure for `CCc1ccccc1-n1nc(C)cc1Oc1ccccc1NC(=O)Nc1ccc(C(F)(F)F)cc1F` [Example 93, 1-(2-(1-(2-ethylphenyl)-3-methyl-1H-pyrazol-5-yloxy)phenyl)-3-(2-fluoro-4-(trifluoromethyl)phenyl)urea]: 123 nM; for `CC(C)c1cc(Oc2ccccc2NC(=O)Nc2ccc(OC(F)(F)F)cc2)n(-c2ccccc2)n1` [Example 29, 1-[2-(5-Isopropyl-2-phenyl-2H-pyrazol-3-yloxy)-phenyl]-3-(4-trifluoromethoxy-phenyl)-urea]: > 10000 nM. The value for `Cc1cc(Oc2ccccc2NC(=O)Nc2ccc(C(C)(C)C)cc2)n(-c2ccccc2Cl)n1` [Example 6] was 95 nM; that for `Cc1cc(Oc2ccccc2NC(=O)Nc2ccc(OC(F)(F)F)cc2)n(-c2ccc(F)cc2F)n1` [Example 14] was 133 nM; that for `Cc1cc(Oc2ccccc2NC(=O)Nc2cccc(F)c2)n(-c2ccccc2)n1` [Example 38] was 1910 nM. Regarding `Cc1ccc(NC(=O)Nc2ccccc2Oc2cc(C)nn2-c2ccccc2)c(C)c1` [Example 60], the IC50 is > 10000 nM. The same measure for “1-Phenyl-5-{2-[3-(4-trifluoromethoxy-phenyl)-ureido]-phenoxy}-1H-pyrazole-3-carboxylic acid methyl ester [Example 26]”: > 10000 nM; for `Cc1cc(Oc2ccccc2NC(=O)Nc2ccc(OC(F)(F)F)cc2)n(-c2cccc(F)c2)n1` [Example 17]: 307 nM; for `O=C(Nc1ccc(OC(F)(F)F)cc1)Nc1ccccc1Oc1ccnn1-c1ccccc1Cl` [Example 25, 1-{2-[2-(2-Chloro-phenyl)-2H-pyrazol-3-yloxy]-phenyl}-3-(4-trifluoromethoxy-phenyl)-urea]: 268 nM.

`CCc1cc(Oc2ccccc2NC(=O)Nc2ccc(OC(F)(F)F)cc2)n(-c2ccccc2)n1` [Example 28, 1-[2-(5-Ethyl-2-phenyl-2H-pyrazol-3-yloxy)-phenyl]-3-(4-trifluoromethoxy-phenyl)-urea]: the IC50 was > 10000 nM.

`Cc1cc(Oc2ncccc2NC(=O)Nc2ccc(OC(F)(F)F)cc2)n(-c2ccccc2Cl)n1` [Example 22, 1-{2-[2-(2-Chloro-phenyl)-5-methyl-2H-pyrazol-3-yloxy]-pyridin-3-yl}-3-(4-trifluoromethoxy-phenyl)-urea] gave an IC50 of 139 nM. The same measure for `COc1ccc(-n2nc(C)cc2Oc2ccccc2NC(=O)Nc2ccc(OC(F)(F)F)cc2)cc1` [Example 18]: 731 nM; for `CCc1ccccc1-n1nc(C)cc1Oc1ccccc1NC(=O)Nc1ccc(C#N)cc1` [Example 101, 1-(4-cyanophenyl)-3-(2-(1-(2-ethylphenyl)-3-methyl-1H-pyrazol-5-yloxy)phenyl)urea]: 1020 nM.
